Holding throughout (format): cell-based, human
Data set [1] has as its system Fibronectin secretion from ES2 cells. Kind of data set: Fibronectin secretion (Western blot), ES2 cells. For orientation: A western blot detects proteins with antibodies after separation by electrophoresis.
The test system of another data set is ES2(ovarian) cells. Kind of data set: MTT assay ES2. Particulars: for viable cells by MTT assay: ES2, 10 ug/ml. On the technique in general: Tetrazolium assays rely on reduction of a dye to a coloured formazan, in cell work by metabolically active cells.
The test system of data set [2] is Fibronectin secretion from liver HepG2 cells. The data set can be described thus: Fibronectin secretion (Western blot), HepG2 cells.
Setting [3] is: ES2 cells, 10 ug/ml, listed as xanifolia-Y.
[4] abbreviates: Homo sapiens, ES-2, ES2 cells, read-out: IC50.

“And” between values parts separate entries of the source, which are not always exact repeats. Equal entries are not always repeated. Where two headings read alike, the source gives them in different places.

The IC50 is the midpoint of a concentration-inhibition curve. Usually inhibition stands for the percentage by which the read-out fell short of the control.

As to `C/C=C(/C)C(=O)O[C@H]1[C@H](OC(=O)/C(C)=C\C)[C@@]2(CO)C(CC1(C)C)C1=CCC3[C@@]4(C)CC[C@H](O[C@@H]5OC(C(=O)O)[C@@H](O)C(O[C@@H]6O[C@@H](CO)C(O)C6O)C5O[C@@H]5OC(CO)[C@H](O)C(O)C5O)C(C)(C)C4CC[C@@]3(C)[C@]1(C)[C@@H](O)[C@H]2O` (stereo partly drawn) [Xanifolia-Y, 3-O-[β-D-galactopyranosyl (1→2)]-α-L-arabinofuranosy (1→3)-β-D-glucuronopyranosyl-21,22-O-diangeloyl-3β, 15α, 16α, 21β, 22α, 28-hexahydroxyolean-12-ene], in data set [1] (ES2 cells, 10 ug/ml, 1 to 24 hour), the “secretion of Fibronectin to medium over time” value is reported as “no or only minimally secretion of Fibronectin”. Besides, the “reduction of Fibronectin secretion” value in data set [1] (ES2 cells, 10 ug/ml, 18 hours) was 40%; in data set [1] (ES2 cells, 10 ug/ml, 24 hours, listed as Y), 31% and 30-40% and 38% and 46%; in data set [1] (ES2 cells, 10 ug/ml, 24 hours, listed as xanifolia-Y), 46%. Further, in data set [1] (ES2 cells, 10 ug/ml, drug removed at 4 or 8 hours), the “reduction of FN secretion at 24 hours after removal of drug” value is “over 50%”. The “Fibronectin secreted / FN band intensity, % of DMSO control” value in data set [1] (ES2 cells, 10 ug/ml, listed as Y) is 62% and 51% and 54%; in data set [1] (setting [3]) it was 54%. For the same compound, the “% inhibition of Fibronectin secretion” value in data set [1] (ES2 cells, 10 ug/ml, listed as Y3) was found to be 47%; in data set [1] (setting [3]) it was 49%; in data set [2] (HepG2 cells, 10 ug/ml), 48%. In addition, the “earliest time at which inhibition of Fibronectin was observed” value in data set [1] (ES2 cells, after drug-treatment) turned out to be 8 h. Moreover, the “change in Fibronectin secretion” value in data set [1] (ES2 cells, first 7 hours of treatment) is “not noticeable”. The “growth of cells compared to the DMSO control (MTT)” value with ES2(ovarian) cells (ES2, 10 ug/ml (F13)) is 89%. The “viable cells by MTT assay” value with ES2(ovarian) cells (7 hours) was 93%; in the data set on ES2(ovarian) cells (18 hours) it was “Over 95%”; in the data set on ES2(ovarian) cells (24 hours), 85% and 87%. Also, the IC50 with ES2(ovarian) cells (ES2 cells) was 4.4 mg/L; in the data set with ES2(ovarian) cells (Homo sapiens, ES2, Clear cell, read-out: IC50), 4.4 µM; in the data set with ES2(ovarian) cells (Homo sapiens, ES-2, ES2 cells, combined with Paclitaxel, read-out: IC50 value for Xanifolia-Y when both drugs were used), 2.5 mg/L; in the data set on ES2(ovarian) cells (setting [4]), 5 mg/L. For the same compound, the inhibition at 10 µg/mL in data set [2] (Homo sapiens, HepG2, HepG2 cells, 10 ug/ml) stood at 42%.

For the compound `C/C=C(/C)C(=O)O[C@H]1[C@H](OC(=O)/C(C)=C\C)[C@@]2(CO)C(CC1(C)C)C1=CCC3[C@@]4(C)CC[C@H](O)C(C)(C)C4CC[C@@]3(C)[C@]1(C)[C@@H](O)[C@H]2O` (some centres unmarked) [ACH-Y], the “% inhibition of Fibronectin secretion” value in data set [1] (ES2 cells, 10 ug/ml) is on record as “less (or not observed)”. For the same compound, the “Fibronectin secreted / FN band intensity, % of DMSO control” value in data set [1] (ES2 cells, 20 ug/ml) is 53%-75%. Also, in data set [1] (Homo sapiens, ES-2, ES2 cells, 20 ug/ml), the inhibition at 20 µg/mL was 48%. For the same compound, in the data set on ES2(ovarian) cells (setting [4]), the IC50 is 20 mg/L. The inhibition at 30 µg/mL in data set [2] (Homo sapiens, HepG2, HepG2 cells, 30 ug/ml) stood at 21%.

For the origin of these results see patent US10213451B2, “Methods and compounds for modulating the secretion or expression of adhesion proteins or angiopoietins of cells” (PACIFIC ARROW LIMITED, priority 2004, dated 2019).
